Measured values published in patent publication US20030134901A1, “Lipoxin compounds and their use in treating cell proliferative disorders” (priority 1993, published 2003).

Columns and labels:
A549 cells = assay: 15-HETE generation by IL-1β-treated A549 cells; format: cell-based, human; settings: permeabilized IL-1β-treated A549 cells, arachidonic acid 20 μM
Description: FIG. 3 is a graph showing the relative chiralities of 15-HETE triggered by ASA. A549 cells (10^7 cells per flask) were exposed to IL-1β (1 ng/ml) for 24 h, treated with vehicle (0.1% vol/vol ethanol) (□) or ASA (▪) for 20 min and then incubated (30 min, 37° C.) in HBSS containing arachidonic acid (20 μM) and A23187 (5 μM). Products were chromatographed by RP-HPLC (as in FIG. 1B) and the region containing 15-HETE was collected, extracted with chloroform and treated with diazomethane. Chiral analysis was performed with a Bakerbond DNBPG (see Methods for details). Results are representative of two separate experiments showing similar results.
In incubations involving permeabilized A549 cells (prepared by a rapid freeze-thaw cycle), IL-1β-treated (1 ng/ml, 24 h) A549 cells (1.5×10^6 cells/ml) were pretreated for 20 min with either vehicle (0.1% EtOH), ASA (500 (M; used throughout), 5 (M 17-ODYA, an inhibitor of cytochrome P450, (Muerhoff A. S., et al. (1989) Prostaglandin and fatty acid ω and (ω-1)-oxidation in rabbit lung: acetylenic fatty acid mechanism-based inactivators as specific inhibitors. J Biol.Chem. 244: 749-756.), or […] Rev 5901 isomer, a 5-LO inhibitor, subjected to two cycles of rapid freezing in a dry ice-acetone bath and thawing to room temperature (full cycle <20 min), and incubated with arachidonic acid ([…] for 20 min at 37° C. in 4 ml of DPBS^2+. In experiments involving radiolabeled arachidonic acid, incubations were initiated with the addition of [^3H]-arachidonic acid (0.25 (Ci/ml) plus unlabeled arachidonic acid ([…] for 20 min at 37° C.
For time-course experiments involving the generation of 15-HETE from endogenous sources (see FIG. 2B), intact A549 cells were exposed to IL-1β (1 ng/ml) for up to 48 h and then treated with vehicle (containing 0.1% EtOH) or ASA for 20 min followed by addition of ionophore A23187 (5 μM) in 4 ml of HBSS for 30 min at 37° C.
The monohydroxy eicosanoids (i. e. 5-, 12- and 15-HETE) from A549 cells were analyzed using a Ultrasphere-ODS column (5 μm, 4.6 mm×25 cm) (Beckman Instruments, Fullerton, Calif.) was eluted with MeOH/H2O/acetic acid (65:35:0.01; v/v/v) as phase one (t0-20 min), and a linear gradient with MeOH/acetic acid (99.9:0.1, v/v) as phase two (20-45 min) at a flow rate of 1.0 ml/min. The R- and S-enantiomers of 15-HETE were resolved and identified using a chiral HPLC system similar to that reported by Hawkins et al. (1988). […] When indicated, generation of 15-HETE from endogenous sources was monitored by radioimmunoassay (RIA). […]

[1] = tested on: HUVEC (putative LTD4 receptors); assay: 3H-LXA4 specific binding to HUVEC; parameters: species or system human
Description: Cell cultures and differentiation. HL-60 cells were seeded in RPMI medium supplemented with 100 U/ml penicillin, 100 μg/ml streptomycin, and 10% fetal calf serum (Hyclone, Logan, Utah), incubated at 37° C. with 5% CO2 atmosphere in 250 ml flasks. […] Human umbilical vein endothelial cells (HUVEC) maintained in culture third passage were obtained from Dr. M. Gimbrone (Brigham and Women's Hospital Department of Pathology).
Binding experiments with HUVEC cells were performed in 12 well plates with 3.5×10^5 cells/well. After 10 min, wells were washed twice with PBS and cell-associated label was recovered by adding glacial acetic acid (0.5 ml). Results obtained from these assays were submitted for further analysis using the Ligand program (Elsevier-Biosoft, Cambridge, UK).

[2] = molecular target: T1, LXA4 specific binding sites of differentiated HL-60 cells (Homo sapiens, UniProt P25090); assay: 3H-LXA4 specific binding to differentiated HL-60 cells
T1 construct: endogenous in cells; host or cells: HL-60 cells differentiated with DMSO, retinoic acid or PMA; intact cells
T1 sequence (P25090 1-351): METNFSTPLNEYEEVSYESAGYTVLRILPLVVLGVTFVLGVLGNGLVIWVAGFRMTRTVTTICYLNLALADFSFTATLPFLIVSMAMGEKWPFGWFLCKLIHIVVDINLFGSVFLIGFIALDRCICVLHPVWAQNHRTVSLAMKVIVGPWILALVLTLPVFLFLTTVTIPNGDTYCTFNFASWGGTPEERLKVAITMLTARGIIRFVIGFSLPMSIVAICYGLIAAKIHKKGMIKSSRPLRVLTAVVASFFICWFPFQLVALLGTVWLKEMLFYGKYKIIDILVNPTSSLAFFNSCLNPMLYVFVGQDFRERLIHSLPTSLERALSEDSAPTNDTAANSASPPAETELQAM
Description: Preparation of [11,12-^3H]LXA4. Tritiation of 11,12-acetylenic LXA4 methyl ester was carried out under a custom tritiation service (NET-259:92-2326) by New England Nuclear (Boston, Mass.). Briefly, 11,12-acetylene methyl ester was characterized by UV absorbance and reverse-phase HPLC as in (Nicolaou, K. C. et al. (1985) J. Am. Chem. Soc. 107:7515) and exposed to tritium atmosphere in methylene chloride at room temperature. This incubation was stirred in the presence of Lindlar catalyst (1.0 mg from Fluka Chemicals) for˜1 h. The resulting mixture was stored in methanol and isolated using RP-HPLC. Tritiated products were chromatographed as methyl esters utilizing a gradient HPLC system equipped with a photodiode array rapid spectral detector (Serhan, C. N., Methods in Enzymology: Arachidonate Related Lipid Mediators, in Murphy R. C., Fitzpatrick, F. (eds.), vol. 187. Orlando, Fla., Academic, (1990), p. 167). This mixture contained both [11,12-^3H]LXA4 and [11,12-^3H]-11-trans-LXA4 methyl esters (˜1:3 ratio) as determined by coelution with synthetic standards. After RP-HPLC, fractions containing [11,12-^3H]LXA4 were collected, and extracted into ethyl acetate. The free acid was prepared by LiOH saponification (Fiore, S. et al. (1992) J. Biol. Chem. 267:16168). Material from these fractions, when injected into UV-electrochemical detection HPLC, gave greater than 90% of radioactivity associated with a tetraene-containing product that coeluted with synthetic LXA4. Materials that eluted with the retention time of authentic LXA4 in two HPLC systems were taken for binding experiments. The specific activity calculated for [11,12-^3H]LXA4 was 40.5 Ci/mmole.
Cell cultures and differentiation. HL-60 cells were seeded in RPMI medium supplemented with 100 U/ml penicillin, 100 μg/ml streptomycin, and 10% fetal calf serum (Hyclone, Logan, Utah), incubated at 37° C. with 5% CO2 atmosphere in 250 ml flasks. Individual flasks containing ˜[…] next received dimethyl sulfoxide (DMSO) (1.12% v/v, 120 h) or retinoic acid (RA) (1 μM, 120 h) or phorbol myristate acetate (PMA) (20 nM, 48 h). Before performing binding assays, cells were washed twice in phosphate buffered saline (PBS), Ca^2+- and Mg^2+-free, enumerated and suspended at 20×10^6 cells/ml in Tris buffer (10 mM), pH 7.4 (Fiore, S. et al.(1992) J. Biol. Chem. 267:16168). Nitro blue tetrazolium reduction was performed to monitor induction of polymorphonuclear phenotype as in (Imaizumi, M. and Breitman, T. R. (1986) Blood 67:1273), and cell adherence was determined for induction of macrophage-like phenotype (Collins, S. J. (1987) Blood 70:1273). Human umbilical vein endothelial cells (HUVEC) maintained in culture third passage were obtained from Dr. M. Gimbrone (Brigham and Women's Hospital Department of Pathology).
Ligand binding. ^3H-LXA4 and ^3H-LTB4 binding was performed essentially as in Fiore, S. et al.(1992) J. Biol. Chem. 267:16168. After suspending cells in Tris buffer 10 mM (pH 7.4, Ca^2+ 2.5 mM, Mg^2+ 1.2 mM), aliquots (0.5 ml) were incubated (20 min at 4° C.) with ^3H- ligands alone (0.3 nM) or in the presence of increasing concentrations of homoligands or other compounds (3-300 nM). The incubations were rapidly centrifuged (60 sec, 12,000 g) on silicon oil (d=1.028), and cell-associated radioactivity was determined by liquid scintillation counting (Wallac 1409, Pharmacia, Piscataway, N.J.). Binding experiments with HUVEC cells were performed in 12 well plates with 3.5×10^5 cells/well. After 10 min, wells were washed twice with PBS and cell-associated label was recovered by adding glacial acetic acid (0.5 ml). Results obtained from these assays were submitted for further analysis using the Ligand program (Elsevier-Biosoft, Cambridge, UK).

C#CCCCCCCCCCCCCCCCC(=O)O [17-ODYA, 17-octadecaynoic acid]
reduction in 15-HETE (A549 cells): ~50%

CCCCC/C=C\C\C=C/C=C/C=C/[C@@H](SC[C@H](N)C(=O)NCC(=O)O)[C@@H](O)CCCC(=O)O [LTD4]
competition of specific 3H-LXA4 binding [1]: effective in competing

O=C(O)CCS[C@H](c1ccccc1CCCCCCCCc1ccccc1)[C@@H](O)C(=O)O [SKF 104353]
displacement of 3H-LXA4 specific binding ([2]; competition, competitor 300 nM where printed): did not displace | competition of specific 3H-LXA4 binding [1]: effective in competing

[3H]C(/C=C/C=C/[C@@H](O)[C@@H](O)CCCC(=O)O)=C([3H])/C=C/[C@@H](O)CCCCC [[11,12-^3H]LXA4]
Kd ([2]; isotherm binding, 4° C., 10 min, 0.1-30 nM): 0.6 ± 0.3 nM | Kd [1]: 11 ± 2.6 nM
